What was measured:
[1] = target: 72 kDa type IV collagenase (Homo sapiens, UniProt P08253); assay: Inhibition of human Matrix metalloprotease-2 (MMP-2)
[2] = target: Matrix metalloproteinase-9 (Homo sapiens, UniProt P14780); assay: Inhibition of human Matrix metalloprotease-9 (MMP-9)
[3] = target: Macrophage metalloelastase (Homo sapiens, UniProt P39900); assay: Inhibition of human Matrix metalloprotease-12 (MMP-12)
Macrophage metalloelastase, sequence (P39900 whole entry): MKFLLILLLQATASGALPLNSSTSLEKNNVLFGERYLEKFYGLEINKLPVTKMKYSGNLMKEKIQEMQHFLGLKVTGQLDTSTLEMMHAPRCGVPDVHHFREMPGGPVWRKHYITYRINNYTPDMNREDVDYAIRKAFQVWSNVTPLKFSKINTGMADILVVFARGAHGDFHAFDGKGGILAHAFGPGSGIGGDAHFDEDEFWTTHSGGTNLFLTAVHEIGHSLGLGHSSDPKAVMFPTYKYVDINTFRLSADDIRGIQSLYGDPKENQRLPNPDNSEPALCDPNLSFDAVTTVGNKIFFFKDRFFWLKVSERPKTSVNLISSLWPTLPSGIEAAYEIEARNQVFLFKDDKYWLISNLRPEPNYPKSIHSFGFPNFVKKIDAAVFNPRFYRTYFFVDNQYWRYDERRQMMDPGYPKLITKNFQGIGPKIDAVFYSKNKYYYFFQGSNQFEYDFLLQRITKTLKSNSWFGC

72 kDa type IV collagenase, sequence (P08253 whole entry): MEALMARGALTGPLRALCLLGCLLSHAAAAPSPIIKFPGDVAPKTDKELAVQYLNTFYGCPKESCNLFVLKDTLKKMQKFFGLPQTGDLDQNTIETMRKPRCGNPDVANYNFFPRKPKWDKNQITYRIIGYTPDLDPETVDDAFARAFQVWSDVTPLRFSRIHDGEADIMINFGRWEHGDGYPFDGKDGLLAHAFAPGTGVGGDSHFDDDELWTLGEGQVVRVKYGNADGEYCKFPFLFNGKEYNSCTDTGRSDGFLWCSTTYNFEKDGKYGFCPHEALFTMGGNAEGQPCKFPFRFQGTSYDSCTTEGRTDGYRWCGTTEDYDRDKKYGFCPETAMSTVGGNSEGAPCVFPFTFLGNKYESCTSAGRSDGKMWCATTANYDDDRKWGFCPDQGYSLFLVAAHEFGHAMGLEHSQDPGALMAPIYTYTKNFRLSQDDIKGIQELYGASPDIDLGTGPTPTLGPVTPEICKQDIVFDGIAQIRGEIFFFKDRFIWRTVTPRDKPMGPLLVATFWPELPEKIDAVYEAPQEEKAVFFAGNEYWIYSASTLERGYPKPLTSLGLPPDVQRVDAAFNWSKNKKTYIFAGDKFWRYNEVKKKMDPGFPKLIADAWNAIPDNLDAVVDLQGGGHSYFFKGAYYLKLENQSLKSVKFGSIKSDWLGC
Matrix metalloproteinase-9, sequence (P14780 whole entry): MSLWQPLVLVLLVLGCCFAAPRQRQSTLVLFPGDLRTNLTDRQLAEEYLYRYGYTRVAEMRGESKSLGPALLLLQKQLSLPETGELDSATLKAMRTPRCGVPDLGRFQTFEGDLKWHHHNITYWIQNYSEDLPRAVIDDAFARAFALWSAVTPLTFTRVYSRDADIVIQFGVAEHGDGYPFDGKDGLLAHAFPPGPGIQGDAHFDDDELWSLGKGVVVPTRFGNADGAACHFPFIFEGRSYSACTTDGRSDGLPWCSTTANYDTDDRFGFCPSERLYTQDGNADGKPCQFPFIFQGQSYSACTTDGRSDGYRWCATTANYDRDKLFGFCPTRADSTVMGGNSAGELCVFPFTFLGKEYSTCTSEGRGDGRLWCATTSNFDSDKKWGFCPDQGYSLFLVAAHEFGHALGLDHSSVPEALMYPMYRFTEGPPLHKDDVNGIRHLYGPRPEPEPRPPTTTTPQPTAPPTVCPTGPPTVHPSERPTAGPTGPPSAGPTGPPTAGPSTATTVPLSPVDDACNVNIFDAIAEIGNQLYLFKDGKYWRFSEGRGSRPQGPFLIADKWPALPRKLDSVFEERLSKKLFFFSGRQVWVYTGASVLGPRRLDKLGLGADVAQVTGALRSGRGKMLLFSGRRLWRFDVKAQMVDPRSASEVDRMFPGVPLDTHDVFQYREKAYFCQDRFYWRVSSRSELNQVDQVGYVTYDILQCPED

Row | IC50 [1] | IC50 [2] | IC50 [3] | SMILES
1 | 0.65 nM | 0.8 nM | 3.5 nM | C[C@@H](C[C@@H](CO)NC(=O)c1ccc(Oc2ccccc2)cc1)C(=O)NO
2 | 1.1 nM | 2.8 nM | 2.6 nM | C[C@@H](C[C@@H](COC(=O)CCC(=O)O)NC(=O)c1ccc(Oc2ccccc2)cc1)C(=O)NO

From ChEMBL document CHEMBL1145989, “Development of a water-soluble matrix metalloproteinase inhibitor as an intra-arterial infusion drug for prevention of restenosis after angioplasty” (J Med Chem, 2003)
